Source: ChEMBL document CHEMBL5233247, “Recent advances in DNA gyrase-targeted antimicrobial agents” (Eur J Med Chem, 2020)
≈ marks a conversion by molar mass, not a printed value. Where “and” joins values, the source holds several entries; their conditions need not be identical. Equal entries are not always repeated.

Columns and labels:
Staphylococcus aureus [1] = assay: Antimicrobial activity against Staphylococcus aureus MSCL 334 assessed as inhibition of bacterial growth incubated for 24 hrs by standardized broth dilution method; assay type: functional
Bacillus subtilis [2] = assay: Antimicrobial activity against Bacillus subtilis assessed as inhibition of bacterial growth incubated for 24 hrs by standardized broth dilution method; assay type: functional
Escherichia coli [3] = assay: Antimicrobial activity against Escherichia coli MSCL 332 assessed as inhibition of bacterial growth incubated for 24 hrs by standardized broth dilution method; assay type: functional
Bacillus subtilis [4] = assay: Antibacterial activity against Bacillus subtilis DSM 10 by microdilution assay; assay type: functional
Mycolicibacterium phlei = assay: Antibacterial activity against Mycobacterium phlei DSM 750 by microdilution assay; assay type: functional
Staphylococcus aureus [5] = assay: Antimicrobial activity against Staphylococcus aureus assessed as inhibition of visible growth incubated for 24 hrs by agar-dilution method; assay type: functional
Listeria monocytogenes = assay: Antimicrobial activity against Listeria monocytogenes assessed as inhibition of visible growth incubated for 24 hrs by agar-dilution method; assay type: functional
Escherichia coli [6] = assay: Antimicrobial activity against Escherichia coli assessed as inhibition of visible growth incubated for 24 hrs by agar-dilution method; assay type: functional
[7] = tested on: Salmonella enterica subsp. enterica serovar Gallinarum; assay: Antimicrobial activity against Salmonella gallinarum assessed as inhibition of visible growth incubated for 24 hrs by agar-dilution method; assay type: functional
[8] = tested on: Mycobacterium tuberculosis; assay: Anti-tubercular activity against Mycobacterium tuberculosis H37Rv strain; assay type: functional
Staphylococcus aureus [9] = assay: Antibacterial activity against methicillin-sensitive Staphylococcus aureus; assay type: functional, organism-based
Staphylococcus aureus [10] = assay: Antibacterial activity against healthcare-acquired methicillin-resistant Staphylococcus aureus; assay type: functional
Staphylococcus aureus [11] = assay: Antibacterial activity against community-acquired methicillin-resistant Staphylococcus aureus; assay type: functional
Enterococcus faecalis [12] = assay: Antibacterial activity against Enterococcus faecalis; assay type: functional
Streptococcus pneumoniae = assay: Antibacterial activity against Streptococcus pneumoniae; assay type: functional
Acinetobacter baumannii = assay: Antibacterial activity against Acinetobacter baumannii; assay type: functional
[13] = biological target: DNA gyrase subunit A/DNA gyrase subunit B (Mycobacterium tuberculosis (strain ATCC 25618 / H37Rv), UniProt P9WG45+P9WG47); assay: Inhibition of Mycobacterium tuberculosis DNA gyrase; assay type: protein-complex assay
DNA gyrase [14] = biological target: DNA gyrase (Escherichia coli, UniProt P0AES4+P0AES6); assay: Inhibition of Escherichia coli DNA gyrase; assay type: protein-complex assay
Enterococcus faecalis [15] = assay: Antimicrobial activity against Enterococcus faecalis; assay type: functional
DNA gyrase [16] = biological target: DNA gyrase (Staphylococcus aureus, UniProt P0A0K8+P20831); assay: Inhibition of Staphylococcus aureus DNA gyrase; assay type: protein-complex assay
Escherichia coli [17] = assay: Antimicrobial activity against Escherichia coli MTCC 443 assessed as zone of inhibition incubated for 24 hrs by agar well diffusion method; assay type: functional
Pseudomonas aeruginosa [18] = assay: Antimicrobial activity against Pseudomonas aeruginosa MTCC 424 assessed as zone of inhibition incubated for 24 hrs by agar well diffusion method; assay type: functional
Staphylococcus aureus [19] = assay: Antimicrobial activity against Staphylococcus aureus MTCC 96 assessed as zone of inhibition incubated for 24 hrs by agar well diffusion method; assay type: functional
Streptococcus pyogenes = assay: Antimicrobial activity against […] MTCC 442 assessed as zone of inhibition incubated for 24 hrs by agar well diffusion method; assay type: functional
[20] = tested on: Mycobacterium tuberculosis; assay: Antitubercular activity against Mycobacterium tuberculosis H37Rv MTCC-200; assay type: functional
[21] = Inhibition of Salmonella typhimurium DNA gyrase; parameters: species or system Salmonella enterica subsp. enterica serovar Typhimurium
Salmonella typhimurium = assay: Antibacterial activity against Salmonella typhimurium assessed as inhibition was bacterial growth by broth micro dilution method; assay type: functional, Salmonella enterica subsp. enterica serovar Typhimurium; settings: Salmonella enterica
Salmonella enterica = assay: Antibacterial activity against Salmonella enterica assessed as inhibition was bacterial growth by broth micro dilution method; assay type: functional
Staphylococcus aureus [22] = assay: Antibacterial activity against methicillin-resistant Staphylococcus aureus; assay type: functional, organism-based
Escherichia coli [23] = assay: Antibacterial activity against Escherichia coli DSM 1116 by microdilution assay; assay type: functional
Staphylococcus aureus [24] = assay: Antimicrobial activity against Staphylococcus aureus ATCC 25923 incubated for 18 to 24 hrs by double micro-dilution method; assay type: functional; settings: time 18-24 hrs
Enterococcus faecalis [25] = assay: Antimicrobial activity against Enterococcus faecalis ATCC 29212 incubated for 18 to 24 hrs by double micro-dilution method; assay type: functional; settings: time 18-24 hrs
Pseudomonas aeruginosa [26] = assay: Antimicrobial activity against Pseudomonas aeruginosa ATCC 27853 incubated for 18 to 24 hrs by double micro-dilution method; assay type: functional; settings: time 18-24 hrs
Klebsiella pneumoniae = assay: Antimicrobial activity against Klebsiella pneumoniae ATCC 13883 incubated for 18 to 24 hrs by double micro-dilution method; assay type: functional; settings: time 18-24 hrs
[27] = tested on: Acinetobacter haemolyticus; assay: Antimicrobial activity against Acinetobacter haemolyticus ATCC 19002 incubated for 18 to 24 hrs by double micro-dilution method; assay type: functional; settings: time 18-24 hrs

Sequence of DNA gyrase (Staphylococcus aureus, UniProt P0A0K8+P20831) (P0A0K8 whole entry, the tested form may be a part): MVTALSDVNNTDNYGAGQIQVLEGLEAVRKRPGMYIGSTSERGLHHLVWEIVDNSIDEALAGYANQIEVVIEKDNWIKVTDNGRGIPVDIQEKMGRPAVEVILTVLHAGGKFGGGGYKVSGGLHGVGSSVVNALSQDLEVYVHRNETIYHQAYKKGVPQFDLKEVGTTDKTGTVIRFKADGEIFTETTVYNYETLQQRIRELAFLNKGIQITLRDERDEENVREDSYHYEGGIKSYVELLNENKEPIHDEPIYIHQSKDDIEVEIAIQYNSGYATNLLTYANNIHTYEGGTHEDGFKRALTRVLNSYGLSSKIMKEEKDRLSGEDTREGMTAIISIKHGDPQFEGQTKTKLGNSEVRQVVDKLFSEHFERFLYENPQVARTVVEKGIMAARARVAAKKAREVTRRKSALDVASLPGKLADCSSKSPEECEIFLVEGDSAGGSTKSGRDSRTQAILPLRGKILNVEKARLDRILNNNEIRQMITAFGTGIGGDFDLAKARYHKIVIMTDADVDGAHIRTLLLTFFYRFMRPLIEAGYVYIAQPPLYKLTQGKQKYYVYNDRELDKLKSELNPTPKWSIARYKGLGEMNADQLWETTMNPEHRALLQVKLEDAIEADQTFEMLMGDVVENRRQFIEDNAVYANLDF
Sequence of DNA gyrase (Staphylococcus aureus, UniProt P0A0K8+P20831) (P20831 whole entry, the tested form may be a part): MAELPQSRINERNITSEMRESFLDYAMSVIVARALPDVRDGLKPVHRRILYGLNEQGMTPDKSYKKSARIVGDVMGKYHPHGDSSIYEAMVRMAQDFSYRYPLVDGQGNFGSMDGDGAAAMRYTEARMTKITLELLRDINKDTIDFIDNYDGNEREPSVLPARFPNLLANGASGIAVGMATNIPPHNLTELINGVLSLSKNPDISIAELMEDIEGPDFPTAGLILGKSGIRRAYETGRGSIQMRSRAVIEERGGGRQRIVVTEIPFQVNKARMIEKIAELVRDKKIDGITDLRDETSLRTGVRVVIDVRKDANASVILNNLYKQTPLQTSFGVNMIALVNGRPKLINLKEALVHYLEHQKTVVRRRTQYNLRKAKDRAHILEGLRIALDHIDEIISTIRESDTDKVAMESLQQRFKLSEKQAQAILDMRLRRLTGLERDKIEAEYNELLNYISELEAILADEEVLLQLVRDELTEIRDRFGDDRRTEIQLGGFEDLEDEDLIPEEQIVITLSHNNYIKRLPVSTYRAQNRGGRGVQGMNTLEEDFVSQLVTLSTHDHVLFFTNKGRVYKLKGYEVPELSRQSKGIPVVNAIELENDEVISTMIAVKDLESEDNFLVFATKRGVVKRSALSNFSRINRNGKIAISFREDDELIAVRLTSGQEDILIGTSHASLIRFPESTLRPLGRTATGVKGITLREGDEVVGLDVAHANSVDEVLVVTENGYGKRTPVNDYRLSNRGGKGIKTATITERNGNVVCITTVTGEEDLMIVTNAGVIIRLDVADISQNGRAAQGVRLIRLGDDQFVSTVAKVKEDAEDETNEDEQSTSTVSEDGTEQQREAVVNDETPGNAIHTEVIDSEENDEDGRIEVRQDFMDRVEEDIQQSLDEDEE
Sequence of DNA gyrase subunit A/DNA gyrase subunit B (P9WG45 whole entry): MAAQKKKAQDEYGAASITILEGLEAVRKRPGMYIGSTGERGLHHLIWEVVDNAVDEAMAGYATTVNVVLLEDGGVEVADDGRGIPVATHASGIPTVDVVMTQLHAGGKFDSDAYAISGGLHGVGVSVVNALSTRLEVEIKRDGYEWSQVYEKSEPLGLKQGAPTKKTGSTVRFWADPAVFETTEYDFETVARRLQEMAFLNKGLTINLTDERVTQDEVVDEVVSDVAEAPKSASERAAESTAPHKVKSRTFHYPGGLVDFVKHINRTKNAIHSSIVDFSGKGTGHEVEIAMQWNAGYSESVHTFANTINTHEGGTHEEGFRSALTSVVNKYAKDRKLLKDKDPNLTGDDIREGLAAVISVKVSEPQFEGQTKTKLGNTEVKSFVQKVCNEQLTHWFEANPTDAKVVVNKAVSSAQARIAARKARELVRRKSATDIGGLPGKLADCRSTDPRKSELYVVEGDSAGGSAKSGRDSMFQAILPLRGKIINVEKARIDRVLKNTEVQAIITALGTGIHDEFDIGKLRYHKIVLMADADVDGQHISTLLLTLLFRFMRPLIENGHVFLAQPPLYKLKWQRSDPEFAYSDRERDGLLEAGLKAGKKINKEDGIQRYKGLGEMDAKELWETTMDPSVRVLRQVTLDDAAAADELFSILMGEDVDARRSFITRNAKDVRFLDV
Sequence of DNA gyrase subunit A/DNA gyrase subunit B (P9WG47 whole entry): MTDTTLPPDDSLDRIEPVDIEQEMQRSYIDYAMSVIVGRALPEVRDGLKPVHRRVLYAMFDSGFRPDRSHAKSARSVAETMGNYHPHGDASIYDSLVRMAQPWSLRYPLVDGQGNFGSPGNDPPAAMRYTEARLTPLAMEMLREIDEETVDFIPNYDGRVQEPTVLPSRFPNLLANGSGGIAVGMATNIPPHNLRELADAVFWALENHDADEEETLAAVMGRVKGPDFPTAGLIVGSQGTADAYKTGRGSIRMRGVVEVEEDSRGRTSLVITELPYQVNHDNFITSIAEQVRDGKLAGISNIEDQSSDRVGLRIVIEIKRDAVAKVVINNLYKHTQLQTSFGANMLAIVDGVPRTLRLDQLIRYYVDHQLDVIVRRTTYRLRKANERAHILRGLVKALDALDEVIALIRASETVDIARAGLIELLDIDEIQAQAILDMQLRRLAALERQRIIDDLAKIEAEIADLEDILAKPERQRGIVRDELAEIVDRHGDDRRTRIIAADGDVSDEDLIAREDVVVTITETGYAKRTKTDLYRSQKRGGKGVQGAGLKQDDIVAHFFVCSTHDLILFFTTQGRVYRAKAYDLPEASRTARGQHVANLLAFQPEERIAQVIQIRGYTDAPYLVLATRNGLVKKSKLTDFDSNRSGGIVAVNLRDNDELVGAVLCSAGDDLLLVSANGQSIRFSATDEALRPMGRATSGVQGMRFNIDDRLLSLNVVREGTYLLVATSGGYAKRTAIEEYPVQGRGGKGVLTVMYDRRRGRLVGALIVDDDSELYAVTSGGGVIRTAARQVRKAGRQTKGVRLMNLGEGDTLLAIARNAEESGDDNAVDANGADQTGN

`CCCCCCCOCC[N+]1(C)CCc2ccccc2C1.[I-]` (stereo not drawn) gave an MIC (Staphylococcus aureus [1]) of 8 µg/mL, an MIC (Bacillus subtilis [2]) of 128 µg/mL and an MIC (Escherichia coli [3]) of 128 µg/mL.

For `COc1c(NC(=O)c2ccc(NC(=O)[C@H](CC#N)NC(=O)c3ccc(NC(=O)/C(C)=C/c4ccc(O)cc4)cc3)c(OC)c2O)ccc(C(=O)O)c1O`, the MIC (Bacillus subtilis [4]) was 0.062 µM (≈ 0.0449 µg/mL) and the MIC (Mycolicibacterium phlei) was 2 µM (≈ 1.45 µg/mL).

With `Cc1ccc(-n2nc(C)c(C(=O)Oc3ncn(-c4ccccc4)n3)c2Cl)cc1` the MIC (Staphylococcus aureus [5]) was 0.5 µg/mL (≈ 1.27 µM), the MIC (Listeria monocytogenes) was 0.5 µg/mL (≈ 1.27 µM) and the MIC (Escherichia coli [6]) was 0.5 µg/mL (≈ 1.27 µM). It also gave an MIC [7] of 0.5 µg/mL (≈ 1.27 µM).

`COc1cc(/C=N/Nc2nc(-c3ccc([N+](=O)[O-])cc3)cs2)ccc1Oc1ccnc2cc(Cl)ccc12` showed an MIC [8] of 3.12 µM (≈ 1.66 µg/mL).

For `COc1c(N2CCCCC2)c(F)cc2c(=O)c(C(=O)N3CCSC3)cn(C3CC3)c12`, the MIC (Staphylococcus aureus [9]) was 0.39 µg/mL (≈ 0.904 µM), the MIC (Staphylococcus aureus [10]) was 0.62 µg/mL (≈ 1.44 µM) and the MIC (Staphylococcus aureus [11]) was 25 µg/mL (≈ 57.9 µM). The MIC (Enterococcus faecalis [12]) was 12.6 µg/mL (≈ 29.2 µM), the MIC (Streptococcus pneumoniae) was 25 µg/mL (≈ 57.9 µM) and the MIC (Acinetobacter baumannii) was 12.6 µg/mL (≈ 29.2 µM). It also gave an IC50 [13] of 105 µM.

`COc1cc(C(=O)NCC(=O)O)ccc1NC(=O)c1cc(Cl)c(Cl)[nH]1` gave an IC50 (DNA gyrase [14]) of 0.12 µM.

Work on `O=C(O)c1ccc(CNC(=O)[C@H](Cc2ccc(O)cc2)NC(=O)c2cc(Br)c(Br)[nH]2)cc1` yielded an IC50 (DNA gyrase [14]) of 0.619 µM.

For `CC(C)COc1cc(C(=O)NCC(=O)O)ccc1NC(=O)c1cc(Cl)c(Cl)[nH]1`, the IC50 (DNA gyrase [14]) was 47 µM and the MIC (Enterococcus faecalis [15]) was 12.5 µM (≈ 5.35 µg/mL).

With `COc1c(NC(=O)c2ccc(NC(=O)[C@@H](NC(=O)c3ccc(NC(=O)/C(C)=C/c4ccc(O)cc4)cc3)C(C)O)c(OC)c2O)ccc(C(=O)O)c1O` (stereo partly drawn) the MIC (Bacillus subtilis [4]) was 0.5 µM (≈ 0.364 µg/mL) and the MIC (Mycolicibacterium phlei) was 2 µM (≈ 1.46 µg/mL).

For `COc1ccc2ccc(F)c(CC(=O)N/N=C/c3ccc(F)cc3F)c2n1`, the IC50 (DNA gyrase [16]) was 375 µM, the “inhibition zone (IZ)” value (Escherichia coli [17]) was 21 mm and the “inhibition zone (IZ)” value (Pseudomonas aeruginosa [18]) was 20 mm. For the same molecule, the “inhibition zone (IZ)” value (Staphylococcus aureus [19]) was 18 mm and the “inhibition zone (IZ)” value (Streptococcus pyogenes) was 20 mm.

In the case of `CCCCCCCOCC[N+]1(C)CCCc2ccccc21.[I-]` (stereo not drawn), the MIC (Staphylococcus aureus [1]) is reported as 1 µg/mL, the MIC (Bacillus subtilis [2]) is reported as 2 µg/mL and the MIC (Escherichia coli [3]) is reported as 128 µg/mL.

Molecule `CCNC(=O)Nc1nc2ccc(NC(=O)Cc3csc(NC(C)=O)n3)cc2s1` has an IC50 (DNA gyrase [14]) of 5.6 µM.

For `COc1ccc(C(=O)Oc2ccc(/C=C3\C(=O)Nc4ccccc43)cc2)cc1OC`, the MIC [20] was 31 µg/mL (≈ 77.2 µM).

In the case of `COc1c(N2CC3(CC3)[C@@](C)(N)C2)c(F)cc2c(=O)c(C(=O)O)cn([C@@H]3C[C@@H]3F)c12`, the IC50 [21] is reported as 0.32 µg/mL and 0.25 µg/mL, the MIC (Salmonella typhimurium) is reported as 0.13 µg/mL (≈ 0.31 µM) and the MIC (Salmonella enterica) is reported as 0.06 µg/mL (≈ 0.143 µM).

With `CCn1cc(C(=O)N[C@@H](CC2CCCCC2)C(=O)N[C@H](CCCNC(=N)N)C(=O)N[C@@H](CC2CCCCC2)C(=O)N[C@H](CCCNC(=N)N)C(=O)N[C@@H](CC2CCCCC2)C(=O)N[C@H](CCCNC(=N)N)C(=O)N[C@@H](CC2CCCCC2)C(N)=O)c(=O)c2ccc(C)nc21` the IC50 (Staphylococcus aureus [22]) was 13 µg/mL (≈ 9.9 µM), the IC50 (Staphylococcus aureus [9]) was 13 µg/mL (≈ 9.9 µM) and the IC50 (DNA gyrase [16]) was 25 µM.

Work on `COc1cc(/C=N/Nc2nc(-c3ccc(Cl)cc3)cs2)ccc1Oc1ccnc2cc(Cl)ccc12` yielded an MIC [8] of 3.12 µM (≈ 1.63 µg/mL).

With `O=C1COc2ccc(CNC3CCN(CCn4c(=O)c5nocc5c5ccc(F)cc54)CC3)nc2N1` the IC50 (DNA gyrase [14]) was 0.426 µM.

Molecule `O=C1COc2ccc(CNC3CCN(CCn4c(=O)c5ncoc5c5ccc(F)cc54)CC3)nc2N1` has an IC50 (DNA gyrase [14]) of 0.426 µM.

With `O=C1COc2cc(F)c(CNC3CCN(CCn4c(=O)c5nocc5c5ccc(F)cc54)CC3)nc2N1` the IC50 (DNA gyrase [14]) was 0.411 µM.

In the case of `COc1c(NC(=O)c2ccc(NC(=O)C(C)(C)NC(=O)c3ccc(NC(=O)/C(C)=C/c4ccc(O)cc4)cc3)c(OC)c2O)ccc(C(=O)O)c1O`, the MIC (Bacillus subtilis [4]) is reported as 0.5 µM (≈ 0.356 µg/mL), the MIC (Escherichia coli [23]) is reported as 0.25 µM (≈ 0.178 µg/mL) and the MIC (Escherichia coli [23]; Escherichia coli, DSM 1116, read-out: MIC) is reported as 0.5 µM (≈ 0.356 µg/mL). For the same molecule, the MIC (Mycolicibacterium phlei) was 2 µM (≈ 1.43 µg/mL).

Molecule `O=C(O)c1cn(C2CC2)c2cc(N3CCN(Cn4nc(CN5CCN(c6ccccc6)CC5)n(Cc5ccccc5)c4=O)CC3)c(F)cc2c1=O` has an IC50 (DNA gyrase [14]) of 0.75 µM, an MIC (Staphylococcus aureus [24]) of 8 µg/mL (≈ 11.5 µM) and an MIC (Enterococcus faecalis [25]) of 8 µg/mL (≈ 11.5 µM). The MIC (Pseudomonas aeruginosa [26]) was 0.125 µg/mL (≈ 0.18 µM), the MIC (Klebsiella pneumoniae) was 0.125 µg/mL (≈ 0.18 µM) and the MIC [27] was 0.125 µg/mL (≈ 0.18 µM).

`O=C(O)c1cn(C2CC2)c2cc(N3CCNCC3)c(F)cc2c1=O` [CIPROFLOXACIN] gave an IC50 [21] of 0.25 µg/mL (≈ 0.754 µM), an MIC (Salmonella typhimurium) of 0.016 µg/mL (≈ 0.0483 µM) and an MIC (Salmonella enterica) of 0.016 µg/mL (≈ 0.0483 µM). For the same molecule, the MIC [8] was 12.5 µM (≈ 4.14 µg/mL), the MIC (Staphylococcus aureus [9]) was 0.098 µg/mL (≈ 0.296 µM) and the MIC (Staphylococcus aureus [10]) was 0.2 µg/mL (≈ 0.604 µM). For the same molecule, the MIC (Staphylococcus aureus [11]) was 6.3 µg/mL (≈ 19 µM), the MIC (Enterococcus faecalis [12]) was 0.79 µg/mL (≈ 2.38 µM) and the MIC (Streptococcus pneumoniae) was 0.39 µg/mL (≈ 1.18 µM). For the same molecule, the MIC (Acinetobacter baumannii) was 0.78 µg/mL (≈ 2.35 µM), the MIC (Listeria monocytogenes) was 0.125 µg/mL (≈ 0.377 µM) and the MIC [7] was 0.125 µg/mL (≈ 0.377 µM).

In the case of `CCn1cc(C(=O)O)c(=O)c2ccc(C)nc21` [NALIDIXIC ACID], the IC50 (Staphylococcus aureus [22]) is reported as 47 µg/mL (≈ 202 µM) and the IC50 (Staphylococcus aureus [9]) is reported as 47 µg/mL (≈ 202 µM).

In the case of `NC(=O)c1cnccn1` [PYRAZINAMIDE], the MIC [8] is reported as 3.12 µM (≈ 0.384 µg/mL).
